One assay addresses rhGAA (Homo sapiens (Human), UniProt P10253). Description: Thermal stabilization of rhGAA by DSF (differential scanning fluorimetry). Conditions: [I]=100 μM. The class given is binding. As for the experimental part:
The stabilization of rhGAA in the presence of the compounds is determined in accordance with the method described in the publication of Niesen et al., 2007, Nat. Protoc. 2: 2212-2221. The rhGAA enzyme (2.5 μg, 0.1 mg/mL) is incubated in the absence and in the presence of each compound (at a concentration [I]=100 μM), of SYPRO® orange dye (Life Technologies), and of sodium phosphate buffer (25 mM) and of NaCI (150 mM), pH 7.4 or of sodium acetate buffer (25 mmol) and of NaCl (150 mM), pH 4.0. The thermal stability of the enzyme in these various conditions is evaluated by DSF (differential scanning fluorimetry) by varying the temperature by 1° C./min over an interval of 25 to 95° C., and measuring the fluorescence of the SYPRO® orange dye every minute by means of a Real-Time Cycler spectrofluorimeter (Biorad). The relative fluorescence is determined by comparing each fluorescence value measured with that of the maximum fluorescence value of the SYPRO® orange dye for each scan. The results are a mean of three identical experiments (triplicates).

Assay [1] concerns the target T1, recombinant human acid α-glucosidase (rhGAA) (Homo sapiens (Human), UniProt P10253). The assay can be described thus: Inhibition of rhGAA determined by measuring the residual activity in vitro. The class given is biochemical. Conditions: sodium acetate buffer pH 4.0, 37° C.; for IC50: 4-nitrophenyl-α-D-glucopyranoside substrate.
Assay [2] has as its target α-glucosidase II of the endoplasmic reticulum (GANAB) (Homo sapiens (Human), UniProt Q14697). The assay can be described thus: Inhibition of GANAB in lysates of fibroblasts of Pompe patients. The assay is classed as biochemical. Conditions: pH 7.0, 4-methyl-umbelliferone-α-D-glucopyranoside 2.4 mM, 2 hours. The method, then:
(§1) The selectivity of the compounds was evaluated in the laboratory of Professors Herman S. Overkleeft and Johanes M. F. G. Aerts, Leiden Institute of Chemistry, Leiden University (NL). The enzymes used for determining the selectivity of inhibition of the compounds with respect to various human enzymes are the α-glucosidase II of the endoplasmic reticulum (GANAB), recombinant human lysosomal β-glucocerebrosidase (GBA1), human non-lysosomal β-glucosylceramidase (GBA2) and β-glucosylceramide synthase (GCS). The inhibiting activity of the compounds on these various enzymes is determined as described in the publication by Artola et al., 2017, ACS Cent. Sci. 3: 784-793. The enzyme GBA1 sold under the name Cerezyme® and the enzyme rhGAA sold under the name Myozyme® are used. The human GANAB enzyme used for this study is that of fibroblasts of patients suffering from Pompe disease diagnosed as lacking active GAA and voluntary donors. These fibroblasts were cultivated on an HAMF12-DMEM medium (Sigma) supplemented by 10% (v/v) FCS (fetal calf serum). The GBA2 enzyme was over-expressed in HEK298T cells cultivated on a DMEM medium enriched with glucose (Gibco) supplemented by 10% NBS (newborn bovine serum) and 100 units/mL of penicillin/streptomycin (Gibco) and 5% CO2 at 37° C. The activity of the compounds on human β-glucosylceramide synthase (GCS) is evaluated in situ on cells of the RAW 264.7 type cultivated on an RPMI medium (Gibco) supplemented by 10% FCS, 1 mM of glutamax, 100 units/mL of penicillin/streptomycin (Gibco) and 5% CO2 at 37° C.
(§2) These cell lysates are homogenized using a SilentCrusher grinder (Heidolph®), and then subjected to ultracentrifugation at 32,000 rpm for 30 minutes at 4° C. The total protein concentration is determined in accordance with the Bradford method (Bradford, 1976, Anal. Biochem. 72: 248-254), using a Bradford BioRad Quick Start® kit (Pierce) and BSA (Sigma). The lysates are next aliquoted and stored at −80° C. before use.

The target of assay [3] is human non-lysosomal β-glucosylceramidase (GBA2) (Homo sapiens (Human), UniProt Q9HCG7). Description: Inhibition of GBA2 in lysates of HEK298T cells over-expressing GBA2. The class given is biochemical. Conditions: pH 5.8, 4-methyl-umbelliferone-β-D-glucopyranoside 3.0 mM, 1 hour. The method, then:
as §1, §2
The residual activity of GBA2 in the presence of the compounds is determined after pre-incubation for 30 minutes of the homogenates of HEK298T cells over-expressing GBA2 with an inhibitor of GBA1, conduritol β-epoxide (Sigma), at a concentration of 1 mM.

Assay [4] deals with β-glucosylceramide synthase (GCS) (Mus musculus (Mouse), UniProt O88693). Description: Inhibition of GCS in situ in RAW 264.7 cells. The class given is cell-based. The note with it: pH 7.0, 1 μM NBD-ceramide. The method, then:
as §1, §2
The residual activity of GCS in the presence of the compounds is determined after pre-incubation for 1 hour of the homogenates of RAW 264.7 cells with an inhibitor of GBA1, conduritol β-epoxide (Sigma), at a concentration of 300 μM.
The I50 values for the GCS enzyme are determined in situ in the cell culture medium at pH 7.0 using 1 μM of NBD-ceramide (N-[12-[(7-nitro-2-1,3-benzoxadiazol-4-yl)amino]dodecanoyl]-D-erythro-sphingosine) as substrate, as described in the aforementioned publication of Lahav et al.

Assay [5] deals with recombinant human lysosomal β-glucocerebrosidase (GBA1) (Homo sapiens (Human), UniProt P04062, R534H). The assay can be described thus: Inhibition of GBA1 (Cerezyme). The class given is biochemical. Conditions: pH 5.2, 4-methyl-umbelliferone-β-D-glucopyranoside 3.0 mM, 30 minutes. As for the experimental part: as §1
Chain of recombinant human lysosomal β-glucocerebrosidase (GBA1) (P04062 40-536 R534H limits assumed): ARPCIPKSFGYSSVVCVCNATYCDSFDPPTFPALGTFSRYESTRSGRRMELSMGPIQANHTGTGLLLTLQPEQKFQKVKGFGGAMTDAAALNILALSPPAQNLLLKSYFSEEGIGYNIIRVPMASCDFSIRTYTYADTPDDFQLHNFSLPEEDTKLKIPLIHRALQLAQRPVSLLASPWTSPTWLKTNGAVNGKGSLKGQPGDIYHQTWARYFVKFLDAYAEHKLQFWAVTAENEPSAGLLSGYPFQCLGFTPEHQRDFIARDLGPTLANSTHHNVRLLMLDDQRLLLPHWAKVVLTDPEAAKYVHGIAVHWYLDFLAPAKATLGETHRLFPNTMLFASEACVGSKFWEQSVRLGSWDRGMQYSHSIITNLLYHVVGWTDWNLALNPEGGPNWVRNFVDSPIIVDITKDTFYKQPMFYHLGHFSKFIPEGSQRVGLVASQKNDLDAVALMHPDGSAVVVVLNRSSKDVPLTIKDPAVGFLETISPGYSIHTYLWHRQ
Assay [6] deals with T1, recombinant human acid α-glucosidase (rhGAA). The assay can be described thus: Inhibition of rhGAA determined by Fluopol-ABPP. The class given is binding. The note with it: McIlvaine buffer pH 5.0, 37° C., TAMRA probe. From the text: The inhibiting activity on recombinant human acid α-glucosidase (rhGAA) of the compounds is implemented using the Fluopol-ABPP method (Fluorescence Polarization Activity Based Protein Profiling) described in the publication of Lahav et al., 2017, J. Am. Chem. Soc. 139: 14192-14197. This technique, based on the competition between an inhibitor and a fluorescent probe capable of binding covalently to the active site of an enzyme, makes it possible to measure the affinity of this inhibitor for the active site of the rhGAA enzyme used for these experiments by the laboratory of Professors Herman S. Overkleeft and Johanes M. F. G. Aerts, Leiden Institute of Chemistry, Leiden University (NL), is the enzyme marketed under the name Myozyme®. […] The […] (TAMRA) fluorescent probe in solution (25 nM) in the buffer is next added to the mixture. After 4 hours, the samples are irradiated with a polarized light (λ=530 nm) and the fluorescence emitted (λ=580 nm) is measured by means of an Infinite® M1000Pro (Tecan) spectrofluorimeter. For each concentration of inhibitor, the percentage of inhibition of the enzyme is determined by the formula:
%Inhibition=[Fmeasured−Fcontrol1)/Fcontro2)×100
The IC50 values are calculated by a non-linear regression of the % inhibition as a function of the concentration [I] by means of the GraphPad Prism 6.0 software. The results are a mean of three identical experiments (triplicates).

Setting [7] is: pH 7.4, read-out: rhGAA ΔTm at pH 7.4.
The mark [8] stands for this setting: pH 4.0, read-out: rhGAA ΔTm at pH 4.0.

These results are taken from patent publication US20230339856A1, “NOVEL PHARMACOLOGICAL CHAPERONE COMPOUNDS OF HUMAN ACID ALPHA-GLUCOSIDASE AND THE THERAPEUTIC USE THEREOF” (UNIVERSITÉ GRENOBLE ALPES, priority 2020, published 2023).

Like-named read-outs stand apart in the source and are kept apart here. Where only a bound is given, the exact number is not on record here.

Chain of β-glucosylceramide synthase (GCS) (O88693 whole entry): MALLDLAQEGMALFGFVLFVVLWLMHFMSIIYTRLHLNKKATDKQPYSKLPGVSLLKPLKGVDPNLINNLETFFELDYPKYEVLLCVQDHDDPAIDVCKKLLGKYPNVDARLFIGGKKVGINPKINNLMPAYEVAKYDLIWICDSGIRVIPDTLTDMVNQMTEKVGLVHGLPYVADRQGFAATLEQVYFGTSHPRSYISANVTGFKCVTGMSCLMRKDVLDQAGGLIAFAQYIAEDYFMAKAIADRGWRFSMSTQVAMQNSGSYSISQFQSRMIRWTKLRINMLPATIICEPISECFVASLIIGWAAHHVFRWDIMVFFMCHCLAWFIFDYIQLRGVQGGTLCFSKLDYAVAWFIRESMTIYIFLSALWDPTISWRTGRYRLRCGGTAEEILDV
Chain of human non-lysosomal β-glucosylceramidase (GBA2) (Q9HCG7 whole entry): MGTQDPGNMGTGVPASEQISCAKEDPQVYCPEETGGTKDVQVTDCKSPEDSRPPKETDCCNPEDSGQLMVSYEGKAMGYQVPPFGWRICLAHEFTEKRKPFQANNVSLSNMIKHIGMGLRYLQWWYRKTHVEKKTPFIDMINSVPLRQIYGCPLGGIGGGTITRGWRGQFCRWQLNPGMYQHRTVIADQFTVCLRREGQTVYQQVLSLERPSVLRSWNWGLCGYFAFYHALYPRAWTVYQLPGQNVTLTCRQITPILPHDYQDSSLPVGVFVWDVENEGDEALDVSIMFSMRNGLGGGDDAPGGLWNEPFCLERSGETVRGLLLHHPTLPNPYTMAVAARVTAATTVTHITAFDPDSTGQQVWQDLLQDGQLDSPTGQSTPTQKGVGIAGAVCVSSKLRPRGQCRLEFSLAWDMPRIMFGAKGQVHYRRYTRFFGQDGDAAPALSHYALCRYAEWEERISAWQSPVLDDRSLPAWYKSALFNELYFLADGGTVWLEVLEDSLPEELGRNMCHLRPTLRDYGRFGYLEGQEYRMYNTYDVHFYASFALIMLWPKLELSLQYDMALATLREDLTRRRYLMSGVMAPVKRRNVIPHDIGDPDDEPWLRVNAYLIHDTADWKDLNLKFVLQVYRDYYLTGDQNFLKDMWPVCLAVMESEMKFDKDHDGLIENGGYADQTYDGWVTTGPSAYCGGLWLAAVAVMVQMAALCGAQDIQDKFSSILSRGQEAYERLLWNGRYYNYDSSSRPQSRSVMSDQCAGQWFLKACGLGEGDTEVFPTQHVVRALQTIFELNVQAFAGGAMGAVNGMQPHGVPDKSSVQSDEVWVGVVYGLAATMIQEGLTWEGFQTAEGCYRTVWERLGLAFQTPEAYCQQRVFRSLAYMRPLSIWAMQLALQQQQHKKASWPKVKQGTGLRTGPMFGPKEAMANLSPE
Chain of α-glucosidase II of the endoplasmic reticulum (GANAB) (Q14697 29-944): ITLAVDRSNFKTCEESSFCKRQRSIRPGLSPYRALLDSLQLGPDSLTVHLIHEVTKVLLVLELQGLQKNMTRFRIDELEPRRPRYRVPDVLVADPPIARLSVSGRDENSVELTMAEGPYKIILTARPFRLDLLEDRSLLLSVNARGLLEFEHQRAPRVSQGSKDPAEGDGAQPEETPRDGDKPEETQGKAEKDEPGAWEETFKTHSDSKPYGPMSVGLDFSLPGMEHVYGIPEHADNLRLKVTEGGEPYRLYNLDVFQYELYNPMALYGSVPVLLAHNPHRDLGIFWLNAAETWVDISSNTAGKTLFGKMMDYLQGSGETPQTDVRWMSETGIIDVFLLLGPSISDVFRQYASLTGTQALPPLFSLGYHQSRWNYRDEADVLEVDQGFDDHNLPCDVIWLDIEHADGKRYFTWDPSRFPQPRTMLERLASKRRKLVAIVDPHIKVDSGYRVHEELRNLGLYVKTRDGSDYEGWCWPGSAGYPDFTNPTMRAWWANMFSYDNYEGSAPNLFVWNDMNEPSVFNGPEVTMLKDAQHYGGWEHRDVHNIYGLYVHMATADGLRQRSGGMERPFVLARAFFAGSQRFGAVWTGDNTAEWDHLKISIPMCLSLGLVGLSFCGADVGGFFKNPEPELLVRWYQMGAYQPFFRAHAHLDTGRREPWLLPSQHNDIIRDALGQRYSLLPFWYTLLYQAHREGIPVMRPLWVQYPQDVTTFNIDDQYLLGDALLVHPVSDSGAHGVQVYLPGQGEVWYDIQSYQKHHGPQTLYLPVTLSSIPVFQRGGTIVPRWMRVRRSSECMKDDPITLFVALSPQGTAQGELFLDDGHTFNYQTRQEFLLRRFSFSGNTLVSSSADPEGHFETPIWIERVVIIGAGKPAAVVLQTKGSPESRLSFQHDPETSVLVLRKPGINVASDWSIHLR
Chain of α-glucosidase II of the endoplasmic reticulum (GANAB) (P14314 15-528 partner): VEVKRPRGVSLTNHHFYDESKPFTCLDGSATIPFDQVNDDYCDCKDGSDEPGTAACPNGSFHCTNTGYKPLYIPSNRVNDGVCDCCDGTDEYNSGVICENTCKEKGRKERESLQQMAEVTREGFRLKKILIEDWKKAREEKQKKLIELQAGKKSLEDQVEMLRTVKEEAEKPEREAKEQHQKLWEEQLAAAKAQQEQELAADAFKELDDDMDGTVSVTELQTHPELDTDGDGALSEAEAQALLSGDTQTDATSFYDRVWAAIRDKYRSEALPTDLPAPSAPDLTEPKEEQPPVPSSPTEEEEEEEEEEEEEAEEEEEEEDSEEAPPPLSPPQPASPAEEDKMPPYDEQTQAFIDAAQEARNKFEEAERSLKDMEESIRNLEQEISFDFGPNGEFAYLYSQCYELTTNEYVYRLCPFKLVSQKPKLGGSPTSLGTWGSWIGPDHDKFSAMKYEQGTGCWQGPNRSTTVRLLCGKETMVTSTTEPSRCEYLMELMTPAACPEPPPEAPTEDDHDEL

Turning to `C[Si](C)(C)CC[C@]1(CO)NC[C@H](O)[C@@H](O)[C@@H]1O` [Compound (IIx1), (2R,3R,4R,5S)-2-(hydroxymethyl)-2-(2-(trimethylsilyl)ethyl)piperidine-3,4,5-triol], on rhGAA (setting [7]), the ΔTm at 100 µM stood at 16.5 °C. For the same compound, the IC50 in assay [1] was 40.3 µM.

With `CC[C@]1(CO)NC[C@H](O)[C@@H](O)[C@@H]1O` [(IIa), (2R,3R,4R,5S)-2-ethyl-2-(hydroxymethyl)piperidine-3,4,5-triol], the IC50 in assay [2] is over 100 µM; in assay [3], over 1000 µM; in assay [4], over 50 µM; in assay [5], over 1000 µM; in assay [6], 0.42 µM; in assay [1], 341 µM. Besides, the ΔTm at 100 µM is 8.1 °C on rhGAA (setting [8]) and 12.7 °C on rhGAA (setting [7]).

With `CCCCC[C@]1(CO)NC[C@H](O)[C@@H](O)[C@@H]1O` [Compound (IIb1), (2R,3R,4R,5S)-2-(hydroxymethyl)-2-pentylpiperidine-3,4,5-triol], the ΔTm at 100 µM on rhGAA (setting [7]) amounted to 6.2 °C. In assay [1], the Ki worked out at 6.4 µM and the IC50 came out at 49.1 µM.

Turning to `OC[C@]12[C@@H](O)[C@H](O)[C@@H](O)CN1[C@@H]2[C@H](O)C1CCCCC1` (stereo partly drawn) [Compound (IIn), (3S,4R,5R,6R,7S)-7-((R)-cyclohexyl(hydroxy)methyl)-6-(hydroxymethyl)-1-azabicyclo[4.1.0]heptane-3,4,5-triol], the 50% inhibitory concentration (IC50) in assay [6] turned out to be 24.6 µM.

As to `OC[C@@]12CCN1C[C@H](O)[C@@H](O)[C@@H]2O` [Compound (IIh), (3S,4R,5R,6R)-6-(hydroxymethyl)-1-azabicyclo[4.2.0]octane-3,4,5-triol], the IC50 in assay [6] was 9.7 µM.

Regarding `CCCCCCC[C@]1(CO)NC[C@H](O)[C@@H](O)[C@@H]1O` [Compound (IIb3), (2R,3R,4R,5S)-2-heptyl-2-(hydroxymethyl)piperidine-3,4,5-triol], the ΔTm at 100 µM on rhGAA (setting [7]) amounted to 16.9 °C. Moreover, in assay [1], the Ki is 10.8 µM and the IC50 was 29.6 µM.

As for `OC[C@]12[C@@H](O)[C@H](O)[C@@H](O)CN1[C@@H]2C(O)c1ccccc1` (stereo in doubt) [Compound (IIm), (3S,4R,5R,6R,7S)-7-((S)-hydroxy(phenyl)methyl)-6-(hydroxymethyl)-1-azabicyclo[4.1.0]heptane-3,4,5-triol], the IC50 in assay [6] was determined as 45 µM.

As to `OC[C@@]1(CCC2CCCCC2)NC[C@H](O)[C@@H](O)[C@@H]1O` [Compound (IIb7), (2R,3R,4R,5S)-2-(2-cyclohexylethyl)-2-(hydroxymethyl)piperidine-3,4,5-triol], the ΔTm at 100 µM on rhGAA (setting [7]) was determined as 16.8 °C.

`OCC[C@]1(CO)NC[C@H](O)[C@@H](O)[C@@H]1O` [(IId), (2R,3R,4R,5S)-2-(2-hydroxyethyl)-2-(hydroxymethyl)piperidine-3,4,5-triol]: the concentration for half-maximal inhibition (IC50) in assay [2] is over 100 µM; in assay [3] it was over 1000 µM; in assay [4] it was over 50 µM; in assay [5], over 1000 µM; in assay [6] it was 0.15 µM; in assay [1] it was 182 µM. Also, the ΔTm at 100 µM is 9.4 °C at rhGAA (setting [8]) and 10.7 °C at rhGAA (setting [7]). Further, in assay [1], the Ki amounted to 18.9 µM.

`OC[C@H]1N2C[C@H](O)[C@@H](O)[C@H](O)[C@]12CO` (stereo partly drawn) [Compound (IIk), (3S,4R,5R,6R,7S)-6,7-bis(hydroxymethyl)-1-azabicyclo[4.1.0]heptane-3,4,5-triol]: the IC50 in assay [6] worked out at 11.6 µM.

`OC[C@@]1(CCc2ccccc2)NC[C@H](O)[C@@H](O)[C@@H]1O` [(IIc), (2R,3R,4R,5S)-2-(hydroxymethyl)-2-phenethylpiperidine-3,4,5-triol]: the IC50 is over 100 µM in assay [2]; over 1000 µM in assay [3]; over 50 µM in assay [4]; over 1000 µM in assay [5]; 0.22 µM in assay [6]; 37.2 µM in assay [1]. The ΔTm at 100 µM on rhGAA (setting [8]) was 11.8 °C; on rhGAA (setting [7]), 13 °C. Besides, in assay [1], the Ki came to 7.6 µM.

On to `OC[C@@H](O)[C@H]1N2C[C@H](O)[C@@H](O)[C@H](O)[C@]12CO` (stereo partly drawn) [Compound (IIj), (3S,4R,5R,6R,7S)-7-((S)-1,2-dihydroxyethyl)-6-(hydroxymethyl)-1-azabicyclo[4.1.0]heptane-3,4,5-triol], for which, in assay [6], the IC50 came to 15.2 µM.

For the compound `OC[C@@]12CCCCN1C[C@H](O)[C@@H](O)[C@@H]2O` [(IIf), (1R,2R,3S,9aR)-9a-(hydroxymethyl)octahydro-1H-quinolizine-1,2,3-triol], the concentration for half-maximal inhibition (IC50) in assay [2] is over 100 µM; in assay [3], over 1000 µM; in assay [4], over 50 µM; in assay [5], over 1000 µM; in assay [6], 0.87 µM; in assay [1] it was 297 µM. Also, the shift in melting temperature (ΔTm) at 100 µM at rhGAA (setting [8]) came out at 6.4 °C; on rhGAA (setting [7]) it was 11.8 °C.

Take `OC[C@@]1(CCCc2ccccc2)NC[C@H](O)[C@@H](O)[C@@H]1O` [Compound (IIc1), (2R,3R,4R,5S)-2-(hydroxymethyl)-2-(3-phenylpropyl)piperidine-3,4,5-triol]: the ΔTm at 100 µM at rhGAA (setting [7]) amounted to 15 °C. For the same compound, in assay [1], the Ki was 13 µM and the IC50 was 32.9 µM.

On to `OC[C@@]1(CCC23CC4CC(CC(C4)C2)C3)NC[C@H](O)[C@@H](O)[C@@H]1O` [Compound (IIr)], for which the “rhGAA ΔTm at pH 7.4” value at rhGAA (pH 7.4) turned out to be 14.5 °C. In assay [1], the inhibitory constant (Ki) was 20 µM and the IC50 turned out to be 29.5 µM.

In general, ΔTm refers to the shift of the melting midpoint relative to a reference. Usually IC50 stands for the concentration needed to halve the response being measured. A word on the Ki: it is a dissociation constant, usually derived from enzyme kinetics or from competition with a known ligand.
